Source: patent publication US20140094424A1, “MICROBICIDAL COMPOSITIONS AND METHODS OF PRODUCTION USE THEREOF” (priority 2011, published 2014)

Tests used:
Gram positive rods (S) = test: MBC (minimum bactericidal concentration) test in Wash NEXT reagent; type: cell-based
Pseudomonas putida (K) = test: as above; type: cell-based

Measured: MBC test growth score

Cc1cc(NS(=O)(=O)c2ccc(N)cc2)no1 [Sulfamethoxazole, sulfamethoxazole]
−: Pseudomonas putida (K); 20% preservative, 72 hour | Pseudomonas putida (K); 30% preservative, 72 hour | Pseudomonas putida (K); 40% preservative, 72 hour | Pseudomonas putida (K); 50% preservative, 72 hour | Pseudomonas putida (K); 60% preservative, 72 hour | Pseudomonas putida (K); 70% preservative, 48 hour | Pseudomonas putida (K); 70% preservative, 72 hour | Pseudomonas putida (K); 80% preservative, 48 hour | Pseudomonas putida (K); 80% preservative, 72 hour | Pseudomonas putida (K); 90% preservative, 48 hour | Pseudomonas putida (K); 90% preservative, 72 hour | Pseudomonas putida (K); 100% preservative, 48 hour | Pseudomonas putida (K); 100% preservative, 72 hour
2: Pseudomonas putida (K); 10% preservative, 24 hour
+: Gram positive rods (S); 10% preservative, 8 hour | Gram positive rods (S); 10% preservative, 24 hour | Gram positive rods (S); 10% preservative, 48 hour | Gram positive rods (S); 10% preservative, 72 hour | Gram positive rods (S); 10% preservative, 7 day | Gram positive rods (S); 10% preservative, 14 day | Gram positive rods (S); 20% preservative, 8 hour | Gram positive rods (S); 20% preservative, 24 hour | Gram positive rods (S); 20% preservative, 48 hour | Gram positive rods (S); 20% preservative, 72 hour | Gram positive rods (S); 20% preservative, 7 day | Gram positive rods (S); 20% preservative, 14 day | Gram positive rods (S); 30% preservative, 8 hour | Gram positive rods (S); 30% preservative, 24 hour | Gram positive rods (S); 30% preservative, 48 hour | Gram positive rods (S); 30% preservative, 72 hour | Gram positive rods (S); 30% preservative, 7 day | Gram positive rods (S); 30% preservative, 14 day | Gram positive rods (S); 40% preservative, 8 hour | Gram positive rods (S); 40% preservative, 24 hour | Gram positive rods (S); 40% preservative, 48 hour | Gram positive rods (S); 40% preservative, 72 hour | Gram positive rods (S); 40% preservative, 7 day | Gram positive rods (S); 40% preservative, 14 day | Gram positive rods (S); 50% preservative, 8 hour | Gram positive rods (S); 50% preservative, 24 hour | Gram positive rods (S); 50% preservative, 48 hour | Gram positive rods (S); 50% preservative, 72 hour | Gram positive rods (S); 50% preservative, 7 day | Gram positive rods (S); 50% preservative, 14 day | Gram positive rods (S); 60% preservative, 8 hour | Gram positive rods (S); 60% preservative, 24 hour | Gram positive rods (S); 60% preservative, 48 hour | Gram positive rods (S); 60% preservative, 72 hour | Gram positive rods (S); 60% preservative, 7 day | Gram positive rods (S); 60% preservative, 14 day | Gram positive rods (S); 70% preservative, 8 hour | Gram positive rods (S); 70% preservative, 24 hour | Gram positive rods (S); 70% preservative, 48 hour | Gram positive rods (S); 70% preservative, 72 hour | Gram positive rods (S); 70% preservative, 7 day | Gram positive rods (S); 70% preservative, 14 day | Gram positive rods (S); 80% preservative, 8 hour | Gram positive rods (S); 80% preservative, 24 hour | Gram positive rods (S); 80% preservative, 48 hour | Gram positive rods (S); 80% preservative, 72 hour | Gram positive rods (S); 80% preservative, 7 day | Gram positive rods (S); 80% preservative, 14 day | Gram positive rods (S); 90% preservative, 8 hour | Gram positive rods (S); 90% preservative, 24 hour | Gram positive rods (S); 90% preservative, 48 hour | Gram positive rods (S); 90% preservative, 72 hour | Gram positive rods (S); 90% preservative, 7 day | Gram positive rods (S); 90% preservative, 14 day | Gram positive rods (S); 100% preservative, 8 hour | Gram positive rods (S); 100% preservative, 24 hour | Gram positive rods (S); 100% preservative, 48 hour | Gram positive rods (S); 100% preservative, 72 hour | Gram positive rods (S); 100% preservative, 7 day | Gram positive rods (S); 100% preservative, 14 day | Pseudomonas putida (K); 10% preservative, 8 hour | Pseudomonas putida (K); 20% preservative, 8 hour | Pseudomonas putida (K); 30% preservative, 8 hour | Pseudomonas putida (K); 40% preservative, 8 hour | Pseudomonas putida (K); 50% preservative, 8 hour | Pseudomonas putida (K); 60% preservative, 8 hour | Pseudomonas putida (K); 70% preservative, 8 hour | Pseudomonas putida (K); 70% preservative, 24 hour | Pseudomonas putida (K); 80% preservative, 8 hour | Pseudomonas putida (K); 80% preservative, 24 hour | Pseudomonas putida (K); 90% preservative, 8 hour | Pseudomonas putida (K); 90% preservative, 24 hour | Pseudomonas putida (K); 100% preservative, 8 hour | Pseudomonas putida (K); 100% preservative, 24 hour
18: Pseudomonas putida (K); 60% preservative, 48 hour
22: Pseudomonas putida (K); 30% preservative, 48 hour
+/−: Pseudomonas putida (K); 10% preservative, 48 hour | Pseudomonas putida (K); 10% preservative, 72 hour | Pseudomonas putida (K); 20% preservative, 24 hour | Pseudomonas putida (K); 20% preservative, 48 hour | Pseudomonas putida (K); 30% preservative, 24 hour | Pseudomonas putida (K); 40% preservative, 24 hour | Pseudomonas putida (K); 50% preservative, 24 hour | Pseudomonas putida (K); 60% preservative, 24 hour
20: Pseudomonas putida (K); 40% preservative, 48 hour
